Experimental data from US20220347158A1, “Methods of Treating Conditions Related to the S1P1 Receptor” (Arena Pharmaceuticals, Inc., priority 2019, published 2022).
Like-named read-outs stand apart in the source and are kept apart here.

Columns and labels:
subjects with CD = settings: Phase 2; cited from earlier work
UC patients [1] = experiment: Phase 2 dose-ranging study in UC patients; format: in vivo, human
From the text: Further, while UC and CD have overlapping features, there are differences in pathophysiology, disease location, and extent of disease that may dictate different doses for the treatment of UC and CD. Described herein is the elucidation of safe and efficacious dosing of Compound 1 for the treatment of CD.
(§1) Compound 1, or a pharmaceutically acceptable salt, solvate, or hydrate thereof, is an orally administered, selective, synthetic sphingosine 1-phosphate (S1P) receptor 1, 4, 5 modulator. […] Its safety and tolerability have been evaluated in Phase 1 studies with healthy adult subjects at single doses up to 5 mg and repeated doses up to 4 mg once daily (“QD” or “qd”).

UC patients [2] = experiment: Open-label extension study after the Phase 2 UC study; format: in vivo, human; settings: up to 46 weeks
Experimental: as §1

[3] = tested on: peripheral blood lymphocytes; experiment: Phase 1, single ascending dose clinical trial in healthy subjects; format: in vivo, human
lymphocyte = format: in vivo, human
Experimental: In another Phase 1 study, 30 adult subjects received 2 mg of Compound 1 qd (Days 1 to 7), then 3 mg of Compound 1 qd (Days 8 to 12), and finally 4 mg of Compound 1 qd (Days 13 to 14). […] After treatment with Compound 1, lymphocyte reductions of 46% and 65% for Day 8 and Day 15, respectively, were observed.

[4] = tested on: peripheral lymphocyte counts; experiment: Phase 1 studies taken together (safety, tolerability, lymphocyte counts); format: in vivo, human
Experimental: Compound 1, or a pharmaceutically acceptable salt, solvate, or hydrate thereof, is an orally administered, selective, synthetic sphingosine 1-phosphate (S1P) receptor 1, 4, 5 modulator. […] Its safety and tolerability have been evaluated in Phase 1 studies with healthy adult subjects at single doses up to 5 mg and repeated doses up to 4 mg once daily (“QD” or “qd”). […] In another Phase 1 study, 30 adult subjects received 2 mg of Compound 1 qd (Days 1 to 7), then 3 mg of Compound 1 qd (Days 8 to 12), and finally 4 mg of Compound 1 qd (Days 13 to 14). […] After treatment with Compound 1, lymphocyte reductions of 46% and 65% for Day 8 and Day 15, respectively, were observed.

[5] = tested on: peripheral lymphocyte counts; experiment: Phase 1, multiple ascending dose clinical trial in healthy subjects; format: in vivo, human
From the text: […] […] After treatment with Compound 1, lymphocyte reductions of 46% and 65% for Day 8 and Day 15, respectively, were observed.

| Structure (SMILES) | efficacy over placebo (subjects with CD) | endoscopic and symptomatic improvements versus placebo (UC patients [1]; UC patients, 2 mg QD for 12 weeks) | efficacy over placebo (UC patients [1]; subjects with UC, 2 mg) | beneficial effects in open-label extension (UC patients [2]) | decline in the absolute number of peripheral blood lymphocytes ([3]; single 3 mg and 5 mg doses) | declines in peripheral blood lymphocytes ([3]; single doses up to 1 mg) | lymphocyte reductions (lymphocyte; Day 8 (after 2 mg qd Days 1 to 7)) [%] | lymphocyte reductions (lymphocyte; Day 15 (after 2 mg Days 1 to 7, 3 mg Days 8 to 12, 4 mg Days 13 to 14)) [%] | reductions in peripheral lymphocyte counts ([4]; Phase 1 studies together, 2 mg and 3 mg) | tolerability and safety ([4]; Phase 1 studies together, doses up to 4 mg) | safety and tolerability ([4]; adult subjects treated at various doses, Phase 1 single doses up to 5 mg, repeated doses up to 4 mg once daily) | safety and tolerability ([5]; up to 21 days of dosing with 2 mg or 3 mg) | peripheral lymphocyte counts ([5]; up to 21 days of dosing, 2 mg and 3 mg) |
| --- | --- | --- | --- | --- | --- | --- | --- | --- | --- | --- | --- | --- | --- |
| CCCCCCCOc1ccc(CCC(N)(CO)CO)cc1C(F)(F)F [amiselimod] | did not result in improved efficacy over placebo |  |  |  |  |  |  |  |  |  |  |  |  |
| O=C(O)C[C@H]1CCc2c1[nH]c1ccc(OCc3ccc(C4CCCC4)c(C(F)(F)F)c3)cc21 [Compound 1, (R)-2-(7-(4-cyclopentyl-3-(trifluoromethyl)benzyloxy) -1,2,3,4-tetrahydrocyclopenta[b]indol-3-yl)acetic acid] |  | clinically meaningful and statistically significant endoscopic and symptomatic improvements | improved efficacy | Sustained beneficial effects | clear dose-responsive decline | only modest declines | 46 | 65 | significant reductions | well-tolerated with no significant safety findings | safe and well-tolerated | safe and well-tolerated | reduced peripheral lymphocyte counts |
